Measurements: ChEMBL document CHEMBL1201862, “PubChem BioAssay data set” (2004)
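Briefly, cells in 96-well plates were exposed to five compound concentrations for 48 h, and endpoints were estimated by linear interpolation. GI50: concentration for 50% inhibition of growth.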 The source made the active and inactive calls. Rule as the data show it: active = GI50 up to about 1.1 µM and inactive = higher. Where a SMILES comes first, the peptide text is derived from it. [ ]: non-standard residue; d: D form. The star is where a group is joined. ξ: configuration not given here. ξF = NC(Cc1ccccc1)C(=O)O; Cbz = O=C(OCc1ccccc1)*; Aib = CC(C)(N)C(=O)O

Legend:
Test in all cases: growth of human tumour cells (NCI), 48 h
MDA-MB-435 = tested on: MDA-MB-435
NCI/ADR-RES = tested on: NCI/ADR-RES
Hs-578T = tested on: Hs-578T
M14 = tested on: M14
DU-145 = tested on: DU-145
MCF7 = tested on: MCF7
T47D = tested on: T47D
MDA-MB-231 = tested on: MDA-MB-231
SR = tested on: SR
MDA-N = tested on: MDA-N
PC-3 = tested on: PC-3
UACC-257 = tested on: UACC-257
KM12 = tested on: KM12
TK-10 = tested on: TK-10
RXF 393 = tested on: RXF 393
DMS-114 = tested on: DMS-114
KM-20L2 = tested on: KM-20L2
M19-MEL = tested on: M19-MEL
SNB-78 = tested on: SNB-78
DMS-273 = tested on: DMS-273

Structure (SMILES): Nc1nc(=S)[nH]c2nc3c(c(-c4ccccc4)c12)CCCC3
- GI50 (MDA-MB-435): > 100 µM (inactive)
- GI50 (NCI/ADR-RES): > 100 µM (inactive)
- GI50 (Hs-578T): 51.9 µM (inactive)
- GI50 (M14): > 100 µM (inactive)
- GI50 (DU-145): > 100 µM (inactive)
- GI50 (MCF7): > 100 µM (inactive)
- GI50 (T47D): 60.1 µM (inactive)
- GI50 (MDA-MB-231): > 100 µM (inactive)
- GI50 (SR): > 100 µM (inactive)
- GI50 (MDA-N): > 100 µM (inactive)
- GI50 (PC-3): > 100 µM (inactive)
- GI50 (UACC-257): > 10 µM (inactive)
- GI50 (KM12): > 100 µM (inactive)
- GI50 (TK-10): > 100 µM (inactive)

Structure (SMILES): C=CC(Br)(CBr)CCC(Cl)C(C)C (configuration not stated)
- GI50 (MDA-MB-435): 1.82 µM (inactive)
- GI50 (Hs-578T): 2.58 µM (inactive)
- GI50 (M14): 1.7 µM (inactive)
- GI50 (DU-145): 2.72 µM (inactive)
- GI50 (MCF7): 1.39 µM (inactive)
- GI50 (MDA-MB-231): 1.4 µM (inactive)
- GI50 (SR): 0.481 µM (active)
- GI50 (RXF 393): 1.6 µM (inactive)
- GI50 (MDA-N): 1.45 µM (inactive)
- GI50 (PC-3): 3.45 µM (inactive)
- GI50 (UACC-257): 2.25 µM (inactive)
- GI50 (KM12): 1.47 µM (inactive)
- GI50 (TK-10): 1.88 µM (inactive)

Structure (SMILES): CCSc1ncnc2c(C3OC(CO)C(O)C3O)nsc12 (configuration not stated)
- GI50 (MDA-MB-435): > 100 µM (inactive)
- GI50 (NCI/ADR-RES): > 100 µM (inactive)
- GI50 (Hs-578T): > 100 µM (inactive)
- GI50 (M14): > 100 µM (inactive)
- GI50 (DU-145): > 100 µM (inactive)
- GI50 (MCF7): > 100 µM (inactive)
- GI50 (T47D): > 100 µM (inactive)
- GI50 (MDA-MB-231): > 100 µM (inactive)
- GI50 (SR): > 100 µM (inactive)
- GI50 (RXF 393): > 100 µM (inactive)
- GI50 (MDA-N): > 100 µM (inactive)
- GI50 (PC-3): > 100 µM (inactive)

Structure (SMILES): COC1CCC(OS(C)(=O)=O)CO1 (configuration not stated)
- GI50 (DMS-114): > 100 µM (inactive)
- GI50 (KM-20L2): > 100 µM (inactive)
- GI50 (M14): > 100 µM (inactive)
- GI50 (M19-MEL): > 100 µM (inactive)
- GI50 (SNB-78): > 100 µM (inactive)
- GI50 (SR): 24.7 µM (inactive)
- GI50 (RXF 393): > 100 µM (inactive)
- GI50 (UACC-257): > 100 µM (inactive)
- GI50 (KM12): > 100 µM (inactive)

Structure (SMILES): COc1ccccc1C1C(C(=O)O)=C(CO)Oc2cc3c(cc21)OCO3 (configuration not stated)
- GI50 (DMS-114): > 100 µM (inactive)
- GI50 (KM-20L2): > 100 µM (inactive)
- GI50 (M14): > 100 µM (inactive)
- GI50 (M19-MEL): > 100 µM (inactive)
- GI50 (SNB-78): > 100 µM (inactive)
- GI50 (DMS-273): > 100 µM (inactive)
- GI50 (TK-10): > 100 µM (inactive)

Structure (SMILES): O=[N+]([O-])c1ccc(Nc2nc3ccccc3s2)cc1
- GI50 (MDA-MB-435): 37.9 µM (inactive)
- GI50 (NCI/ADR-RES): 34.9 µM (inactive)
- GI50 (Hs-578T): 29.9 µM (inactive)
- GI50 (M14): 26.7 µM (inactive)
- GI50 (DU-145): 69.8 µM (inactive)
- GI50 (T47D): 3.03 µM (inactive)
- GI50 (MDA-MB-231): 18 µM (inactive)
- GI50 (SR): 10.7 µM (inactive)
- GI50 (RXF 393): 14.7 µM (inactive)
- GI50 (PC-3): 16.3 µM (inactive)
- GI50 (UACC-257): 25.8 µM (inactive)
- GI50 (KM12): 51.6 µM (inactive)
- GI50 (TK-10): 33.7 µM (inactive)

Structure (SMILES): O=C(O)C1Cc2c([nH]c3ccccc23)C=N1 (configuration not stated)
- GI50 (DMS-114): > 100 µM (inactive)
- GI50 (NCI/ADR-RES): > 100 µM (inactive)
- GI50 (KM-20L2): > 100 µM (inactive)
- GI50 (MCF7): > 100 µM (inactive)
- GI50 (M19-MEL): > 100 µM (inactive)
- GI50 (SNB-78): > 100 µM (inactive)
- GI50 (RXF 393): > 100 µM (inactive)
- GI50 (DMS-273): > 100 µM (inactive)
- GI50 (UACC-257): > 100 µM (inactive)

Structure (SMILES): CC1C/C(=C\c2ccc(O)c(O)c2)C(=O)/C(=C/c2ccc(O)c(O)c2)C1 (configuration not stated)
- GI50 (MDA-MB-435): 2.83 µM (inactive)
- GI50 (NCI/ADR-RES): 18.5 µM (inactive)
- GI50 (Hs-578T): 4.06 µM (inactive)
- GI50 (DU-145): 8.85 µM (inactive)
- GI50 (MCF7): 3.11 µM (inactive)
- GI50 (T47D): 4.57 µM (inactive)
- GI50 (MDA-MB-231): 11.3 µM (inactive)
- GI50 (SR): 3.82 µM (inactive)
- GI50 (RXF 393): 3.73 µM (inactive)
- GI50 (MDA-N): 4.69 µM (inactive)
- GI50 (PC-3): 14 µM (inactive)
- GI50 (UACC-257): 14.5 µM (inactive)
- GI50 (KM12): 8.17 µM (inactive)
- GI50 (TK-10): 25 µM (inactive)

Structure (SMILES): CCCOC(=O)CCC(NC(=O)c1ccc(Nc2nc3ccccc3nc2-c2cccs2)cc1)C(=O)OCCC (configuration not stated)
- GI50 (KM-20L2): > 100 µM (inactive)
- GI50 (M19-MEL): > 100 µM (inactive)
- GI50 (SNB-78): > 100 µM (inactive)
- GI50 (SR): 61.9 µM (inactive)
- GI50 (RXF 393): 67.9 µM (inactive)
- GI50 (DMS-273): > 100 µM (inactive)
- GI50 (KM12): > 100 µM (inactive)
- GI50 (TK-10): > 100 µM (inactive)

Structure (SMILES): CCC(C(C)N1CC(=O)NC(=O)C1)N1CC(=O)NC(=O)C1 (configuration not stated)
- GI50 (DMS-114): 7.01 µM (inactive)
- GI50 (NCI/ADR-RES): 44.8 µM (inactive)
- GI50 (KM-20L2): > 69.2 µM (inactive)
- GI50 (MCF7): 4.08 µM (inactive)
- GI50 (M19-MEL): 41.4 µM (inactive)
- GI50 (SNB-78): > 66.4 µM (inactive)
- GI50 (RXF 393): > 100 µM (inactive)
- GI50 (DMS-273): 12.3 µM (inactive)
- GI50 (UACC-257): > 100 µM (inactive)
- GI50 (KM12): > 100 µM (inactive)

Structure (SMILES): NC(=O)OCC1=C(COC(N)=O)C(=O)c2c(O)ccc(O)c2C1=O
- GI50 (DMS-114): > 100 µM (inactive)
- GI50 (KM-20L2): > 100 µM (inactive)
- GI50 (M14): > 100 µM (inactive)
- GI50 (M19-MEL): 3.46 µM (inactive)
- GI50 (SNB-78): > 100 µM (inactive)
- GI50 (SR): > 100 µM (inactive)
- GI50 (DMS-273): > 100 µM (inactive)
- GI50 (UACC-257): > 100 µM (inactive)
- GI50 (KM12): > 100 µM (inactive)
- GI50 (TK-10): > 100 µM (inactive)

Structure (SMILES): Cc1cccc2c1Sc1ccccc1C2NC(=O)CN(C)C (configuration not stated)
- GI50 (DMS-114): > 100 µM (inactive)
- GI50 (KM-20L2): 18.7 µM (inactive)
- GI50 (M14): 41.4 µM (inactive)
- GI50 (M19-MEL): 47.4 µM (inactive)
- GI50 (SNB-78): > 100 µM (inactive)
- GI50 (SR): 54.7 µM (inactive)
- GI50 (RXF 393): 53.6 µM (inactive)
- GI50 (DMS-273): > 100 µM (inactive)
- GI50 (UACC-257): 52.6 µM (inactive)
- GI50 (TK-10): > 100 µM (inactive)

Structure (SMILES): COC(=O)C(C)(C)NC(=O)C(Cc1ccccc1)NC(=O)C(C)(C)NC(=O)OCc1ccccc1 (configuration not stated) (Cbz-[Aib]-[ξF]-[Aib]-OMe)
- GI50 (MDA-MB-435): > 100 µM (inactive)
- GI50 (NCI/ADR-RES): > 100 µM (inactive)
- GI50 (M14): > 100 µM (inactive)
- GI50 (DU-145): > 100 µM (inactive)
- GI50 (MCF7): > 100 µM (inactive)
- GI50 (T47D): > 100 µM (inactive)
- GI50 (MDA-MB-231): > 100 µM (inactive)
- GI50 (MDA-N): > 100 µM (inactive)
- GI50 (PC-3): > 100 µM (inactive)
- GI50 (UACC-257): > 100 µM (inactive)
- GI50 (TK-10): > 100 µM (inactive)

Structure (SMILES): C[N+](C)(N)c1nc(N)c(C#N)c(C#N)c1C#N
- GI50 (MDA-MB-435): > 10 µM (inactive)
- GI50 (NCI/ADR-RES): > 10 µM (inactive)
- GI50 (Hs-578T): > 10 µM (inactive)
- GI50 (M14): > 10 µM (inactive)
- GI50 (DU-145): > 10 µM (inactive)
- GI50 (MCF7): > 10 µM (inactive)
- GI50 (T47D): > 10 µM (inactive)
- GI50 (MDA-MB-231): > 10 µM (inactive)
- GI50 (SR): > 10 µM (inactive)
- GI50 (RXF 393): > 10 µM (inactive)
- GI50 (MDA-N): > 10 µM (inactive)
- GI50 (PC-3): > 10 µM (inactive)
- GI50 (TK-10): > 10 µM (inactive)

Structure (SMILES): COc1ccc(NC2=NCCO2)c2ccccc12
- GI50 (MDA-MB-435): > 10 µM (inactive)
- GI50 (NCI/ADR-RES): > 10 µM (inactive)
- GI50 (Hs-578T): > 10 µM (inactive)
- GI50 (M14): > 10 µM (inactive)
- GI50 (DU-145): > 10 µM (inactive)
- GI50 (MCF7): > 10 µM (inactive)
- GI50 (T47D): > 10 µM (inactive)
- GI50 (MDA-MB-231): > 10 µM (inactive)
- GI50 (SR): > 10 µM (inactive)
- GI50 (RXF 393): > 10 µM (inactive)
- GI50 (MDA-N): > 10 µM (inactive)
- GI50 (PC-3): > 10 µM (inactive)
- GI50 (KM12): > 10 µM (inactive)
- GI50 (TK-10): > 10 µM (inactive)
